Experiments:
[1] = target: T1, MOP receptor (Mus musculus, UniProt P42866); test: Displacement of specific binding of [3H]-DAMGO from membranes of MOP-transfected HEK293 cells
T1 construct: expressed in transfected cells; host or cells: HEK293 (membranes of MOP-HEK cells)
Procedure: A binding assay was performed to determine whether Compound 1 binds at the MOP receptor.
Stably transfected MOP-HEK cells were plated in a 3×10 cm dish and washed with (3×5 mL) 50 mM Tris-HCl (pH 7.4) when sufficiently confluent. The cells were scraped off the dish in 1.5 mL 50 mM Tris-HCl (pH 7.4) using a transfer pipette and place in 15 mL falcon tubes. The cells were sonicated for a 5 second burst and placed on ice. The protein concentration was estimated. The cells were transferred to a 1.5 mL eppendorf tube and centrifuged at 18,000 rcf for 30 minutes at 4° C. The supernatant was removed and the cells resuspended in 50 mM Tris-HCl (pH 7.4) and 1 mg/mL BSA. An aliquot containing 30-50 μg/200 μL protein was taken and [^3H]DAMGO was added (200 μL in Tris-HCl, pH 7.4) with varying concentrations of unlabelled [D-Ala^2, N-Me-Phe^4, Gly^5-ol]-enkephalin acetate (DAMGO) or Compound 1 (200 μL in Tris-HCl, pH 7.4), total volume 600 μL. The solution was incubated for 1 hour at room temperature with slow rotation.

[2] = tested on: hindpaws of control non-diabetic rats; test: Antinociception by von Frey PWT in control non-diabetic rats; format: in vivo, Wistar rats; conditions: single s.c. bolus; morphine 1.8-21.4 μmol/kg, Compound 1 2-20 fmol/kg
Procedure: (§1) Briefly, baseline PWTs were determined for both hindpaws prior to each antinociceptive testing session in the non-diabetic control group at week 0 as well as in groups of STZ-diabetic rats at 10, 14 and 24 wks.
(§2) The PWT vs time data were normalized by subtracting the pre-dosing baseline PWT values for each individual rat to obtain ΔPWT values as follows: Normalized (Δ)PWT value=Post-treatment PWT value−PWT value prior to treatment.
(§3) ΔPWT versus time curves were then constructed. Trapezoidal integration was used to estimate ΔPWT AUC values for individual rats in the non-diabetic and STZ-diabetic rat treatment groups. ΔPWT AUC versus dose curves were constructed and GraphPad™ Prism was used to estimate the ˜ED50 values.

[3] = tested on: tactile (mechanical) allodynia in hindpaws of STZ-diabetic rats; test: Anti-allodynia by von Frey paw withdrawal thresholds (PWT) in STZ-diabetic rats; format: in vivo, Wistar rats
Procedure: Following this, the jugular cannula was withdrawn, the vein tied off, and the incision sutured. Following surgery, rats received antibiotic prophylaxis in the form of topical dusting powder over the sutured incisions, as well as a subcutaneous injection of benzylpenicillin (60 mg). Rats were placed in individual cages, kept warm and monitored closely during the surgical recovery period. Rats were classified as diabetic if on day 10 post-STZ administration, their daily water intake was ≧100 mL and their corresponding blood glucose levels (BGLs) were ≧15 mM.
Calibrated von Frey filaments were used to document the time course for the development and maintenance of tactile allodynia (defining symptom of PDN).
as §1, §2, §3

[4] = target: κ-opioid receptors (KOP receptors) (Mus musculus, UniProt P33534); test: Forskolin-stimulated cAMP responses in KOP-transfected HEK293 cells; conditions: KOP-transfected HEK293, entire concentration range tested
Procedure: Non-transfected HEK293 cells were used as a control. Transfected HEK293 cells were maintained in Dulbecco's Modified Eagle's Medium (DMEM) supplemented with 10% fetal bovine serum (FBS) and geneticin (1 mg/mL). Non-transfected HEK293 cells were maintained in DMEM supplemented with 10% FBS.
The functional interaction between opioids and opioid-like compounds and specific opioid G-protein-coupled receptors (GPCRs) was assessed by measuring changes in intracellular cAMP levels relative to basal levels. The Alphascreen cAMP functional assay measures agonist and antagonist activity of GPCRs by stimulating cells to either increase or decrease intracellular cAMP levels. The assay was performed using an Alphascreen cAMP kit according to the manufacturer's instructions. […]
Detection of cAMP is based on the competition between intracellular cAMP and biotinylated cAMP linked streptavidin-coated donor beads for anti-cAMP conjugated acceptor beads. When the donor and acceptor beads are in close proximity visible light emitted at 520-620 nm is detected using the Envision multilabel plate reader. […]
The assay performance was optimized by using cells at low passage number and at 70-90% confluence. […] The cell concentration was determined using a haemocytometer. […] Note that the cell number will influence the cAMP levels measured before (basal) and after adenylyl cyclase activation. […]

[5] = 10 wks post-STZ, Compound 1 s.c. (FIG. 3B)
[6] = 14 and 24 wks post-STZ, Compound 1 80 and 800 pmol/kg s.c.

κ-opioid receptors (KOP receptors), sequence (P33534 whole entry): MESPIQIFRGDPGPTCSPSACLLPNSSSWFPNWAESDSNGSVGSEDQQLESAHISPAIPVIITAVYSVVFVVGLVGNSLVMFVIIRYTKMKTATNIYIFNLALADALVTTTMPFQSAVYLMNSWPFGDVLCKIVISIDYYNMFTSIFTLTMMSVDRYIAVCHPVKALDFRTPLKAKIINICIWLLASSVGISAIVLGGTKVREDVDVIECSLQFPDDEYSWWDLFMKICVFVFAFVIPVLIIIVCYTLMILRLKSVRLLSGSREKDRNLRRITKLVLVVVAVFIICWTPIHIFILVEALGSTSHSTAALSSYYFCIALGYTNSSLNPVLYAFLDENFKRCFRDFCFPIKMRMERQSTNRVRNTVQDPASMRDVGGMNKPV
T1 sequence (P42866 whole entry): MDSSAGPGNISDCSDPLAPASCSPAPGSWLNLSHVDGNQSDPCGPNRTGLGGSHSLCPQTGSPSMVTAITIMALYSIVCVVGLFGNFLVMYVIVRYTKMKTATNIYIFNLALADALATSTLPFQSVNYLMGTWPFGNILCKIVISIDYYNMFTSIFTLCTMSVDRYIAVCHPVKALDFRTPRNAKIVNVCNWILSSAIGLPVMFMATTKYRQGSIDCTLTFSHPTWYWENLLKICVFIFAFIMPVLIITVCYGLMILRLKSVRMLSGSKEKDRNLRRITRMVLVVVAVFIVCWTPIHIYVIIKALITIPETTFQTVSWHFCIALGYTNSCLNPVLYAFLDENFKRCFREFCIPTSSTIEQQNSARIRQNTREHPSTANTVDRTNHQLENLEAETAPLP

## Cc1c(C=O)no[n+]1[O-] [Compound 1, 4-formyl-3-methyl-1,2,5-oxadiazole-2-oxide]
[1]
  binding to MOP receptors ([3H]-DAMGO displacement): does not bind significantly
[2]
  antinociception in the hindpaws of control non-diabetic rats: dose-dependent antinociception
[3]; 10 wks post-STZ, Compound 1 8 fmol/kg s.c.
  relief of mechanical allodynia at time of peak effect: complete relief of mechanical allodynia
[3]; [5]
  mean duration of action: > 3 h
  peak anti-allodynic response (PWT): 10.6 ± 0.5 g
  time of peak anti-allodynic response post-dosing: ~75 min
[3]; [6]
  alleviation of mechanical allodynia at time of peak response: fully alleviated
  duration of action: ≥ 3 h
[3]; 14 weeks post-STZ, Compound 1 fmol/kg doses
  anti-allodynic effect of doses used at week 10: no longer effective
[3]; single s.c. bolus at 10, 14, 24 wks post-STZ
  anti-allodynia in the hindpaws of STZ-diabetic rats: dose-dependent anti-allodynia/antinociception
[4]
  inhibition of forskolin-stimulated cAMP formation: did not appear to inhibit

Source: US8822509B2, “Pain-relieving compositions and uses therefor” (priority 2006, dated 2014)
